ChEMBL document CHEMBL1142377, “Discovery of a novel class of 1,3-dioxane-2-carboxylic acid derivatives as subtype-selective peroxisome proliferator-activated receptor alpha (PPARalpha) agonists” (Bioorg Med Chem Lett, 2008)

Experiments:
[1] = molecular target: T1, Peroxisome proliferator-activated receptor delta (Homo sapiens, UniProt Q03181); assay: Agonist activity at human PPARdelta expressed in monkey CV1 cells by transactivation assay; assay type: functional, cell-based, CV-1
T1 sequence (Q03181 whole entry): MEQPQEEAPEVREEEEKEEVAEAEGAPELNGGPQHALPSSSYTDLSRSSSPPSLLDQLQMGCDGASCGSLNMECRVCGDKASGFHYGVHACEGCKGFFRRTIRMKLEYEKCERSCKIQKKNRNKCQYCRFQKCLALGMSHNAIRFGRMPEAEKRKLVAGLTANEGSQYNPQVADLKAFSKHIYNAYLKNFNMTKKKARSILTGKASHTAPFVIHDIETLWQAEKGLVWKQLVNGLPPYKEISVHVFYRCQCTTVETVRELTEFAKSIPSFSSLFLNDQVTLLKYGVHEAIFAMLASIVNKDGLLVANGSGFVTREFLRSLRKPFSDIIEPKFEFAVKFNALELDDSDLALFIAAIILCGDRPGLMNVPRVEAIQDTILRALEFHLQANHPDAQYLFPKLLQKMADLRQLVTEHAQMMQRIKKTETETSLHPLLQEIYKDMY

[2] = system: Mus musculus; assay: Hypolipidemic effect on diabetic KKAy mouse model assessed as reduction of plasma triglyceride level at 1 mg/kg, po QD for 4 days; assay type: functional; design: scale not given: the % may be the effect or the level left
[3] = molecular target: T2, Peroxisome proliferator-activated receptor gamma (Homo sapiens, UniProt P37231)
T2 sequence (P37231 whole entry): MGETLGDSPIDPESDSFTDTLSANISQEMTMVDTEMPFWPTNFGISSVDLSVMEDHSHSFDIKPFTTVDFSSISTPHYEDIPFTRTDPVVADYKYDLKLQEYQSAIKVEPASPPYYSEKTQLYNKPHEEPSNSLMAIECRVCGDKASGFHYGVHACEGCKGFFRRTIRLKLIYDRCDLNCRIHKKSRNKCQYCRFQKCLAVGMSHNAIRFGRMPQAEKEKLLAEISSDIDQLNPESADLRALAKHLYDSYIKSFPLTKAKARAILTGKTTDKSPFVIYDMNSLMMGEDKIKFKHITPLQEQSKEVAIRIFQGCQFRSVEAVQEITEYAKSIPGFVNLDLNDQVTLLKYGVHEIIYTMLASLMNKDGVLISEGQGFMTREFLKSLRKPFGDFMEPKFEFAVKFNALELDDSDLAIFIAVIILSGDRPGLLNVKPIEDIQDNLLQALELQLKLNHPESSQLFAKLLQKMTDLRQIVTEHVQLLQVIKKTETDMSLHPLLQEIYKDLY

[4] = molecular target: T3, Peroxisome proliferator-activated receptor alpha (Homo sapiens, UniProt Q07869); assay: Agonist activity at human PPARalpha expressed in monkey CV1 cells by transactivation assay; assay type: functional, cell-based, CV-1
T3 sequence (Q07869 whole entry): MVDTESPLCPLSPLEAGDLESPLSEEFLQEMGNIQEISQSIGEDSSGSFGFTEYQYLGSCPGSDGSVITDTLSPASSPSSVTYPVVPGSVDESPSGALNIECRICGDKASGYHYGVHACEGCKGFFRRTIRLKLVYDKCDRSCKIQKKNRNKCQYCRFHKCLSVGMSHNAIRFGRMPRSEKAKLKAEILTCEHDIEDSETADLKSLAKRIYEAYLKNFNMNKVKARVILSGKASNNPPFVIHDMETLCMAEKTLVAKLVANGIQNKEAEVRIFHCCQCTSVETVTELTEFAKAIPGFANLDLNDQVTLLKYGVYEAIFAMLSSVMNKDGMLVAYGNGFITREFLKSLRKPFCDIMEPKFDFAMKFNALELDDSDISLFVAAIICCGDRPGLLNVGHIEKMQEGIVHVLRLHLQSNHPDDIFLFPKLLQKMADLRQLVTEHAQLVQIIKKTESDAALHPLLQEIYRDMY

[5] = molecular target: T4, Peroxisome proliferator-activated receptor delta (Homo sapiens) (UniProt Q03181); assay: Agonist activity at human PPARdelta expressed in monkey CV1 cells at 10 uM by transactivation assay; assay type: functional, cell-based; conditions: CV-1
T4 sequence (whole entry): T1 sequence (Q03181 whole entry)

[6] = system: Mus musculus; assay: (§1) Hypolipidemic effect on diabetic KKAy mouse model assessed as increase in HDL cholesterol level at 3 mg/kg, po QD for 4 days; assay type: functional
[7] = molecular target: T5, Peroxisome proliferator-activated receptor alpha (Mus musculus, UniProt P23204); assay: Agonist activity at mouse PPARalpha by transactivation assay; assay type: functional
T5 sequence (P23204 whole entry): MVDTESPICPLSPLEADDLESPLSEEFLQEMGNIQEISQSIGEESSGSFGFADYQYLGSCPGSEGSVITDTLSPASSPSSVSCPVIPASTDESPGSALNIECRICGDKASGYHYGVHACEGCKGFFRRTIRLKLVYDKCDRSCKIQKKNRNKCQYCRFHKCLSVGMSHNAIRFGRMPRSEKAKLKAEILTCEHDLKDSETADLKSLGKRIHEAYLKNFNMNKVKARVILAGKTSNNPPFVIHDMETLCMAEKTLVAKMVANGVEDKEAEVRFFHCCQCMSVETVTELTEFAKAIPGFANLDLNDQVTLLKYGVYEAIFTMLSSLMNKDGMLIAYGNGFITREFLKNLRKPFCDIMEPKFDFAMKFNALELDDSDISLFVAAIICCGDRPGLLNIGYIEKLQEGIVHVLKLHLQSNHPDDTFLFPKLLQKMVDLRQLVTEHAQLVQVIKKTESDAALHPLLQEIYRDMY

[8] = molecular target: T6, Peroxisome proliferator-activated receptor gamma (Mus musculus, UniProt P37238); assay: Agonist activity at mouse PPARgamma by transactivation assay; assay type: functional
T6 sequence (P37238 whole entry): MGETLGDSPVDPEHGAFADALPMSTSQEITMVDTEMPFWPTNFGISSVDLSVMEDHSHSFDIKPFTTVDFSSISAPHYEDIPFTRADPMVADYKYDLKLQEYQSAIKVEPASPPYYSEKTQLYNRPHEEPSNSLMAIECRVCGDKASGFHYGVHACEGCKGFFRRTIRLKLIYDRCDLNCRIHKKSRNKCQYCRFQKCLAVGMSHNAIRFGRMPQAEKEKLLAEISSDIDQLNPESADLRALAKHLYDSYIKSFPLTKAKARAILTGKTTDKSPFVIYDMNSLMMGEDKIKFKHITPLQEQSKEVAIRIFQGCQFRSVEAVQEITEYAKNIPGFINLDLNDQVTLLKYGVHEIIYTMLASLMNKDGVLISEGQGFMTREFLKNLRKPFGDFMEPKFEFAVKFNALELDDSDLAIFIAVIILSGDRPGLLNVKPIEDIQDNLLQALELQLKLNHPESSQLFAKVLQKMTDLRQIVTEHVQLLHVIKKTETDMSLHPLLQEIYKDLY

[9] = molecular target: T7, Peroxisome proliferator-activated receptor delta (Mus musculus) (UniProt P35396); assay: Agonist activity at mouse PPARdelta at 10 uM by transactivation assay; assay type: functional
T7 sequence (whole entry): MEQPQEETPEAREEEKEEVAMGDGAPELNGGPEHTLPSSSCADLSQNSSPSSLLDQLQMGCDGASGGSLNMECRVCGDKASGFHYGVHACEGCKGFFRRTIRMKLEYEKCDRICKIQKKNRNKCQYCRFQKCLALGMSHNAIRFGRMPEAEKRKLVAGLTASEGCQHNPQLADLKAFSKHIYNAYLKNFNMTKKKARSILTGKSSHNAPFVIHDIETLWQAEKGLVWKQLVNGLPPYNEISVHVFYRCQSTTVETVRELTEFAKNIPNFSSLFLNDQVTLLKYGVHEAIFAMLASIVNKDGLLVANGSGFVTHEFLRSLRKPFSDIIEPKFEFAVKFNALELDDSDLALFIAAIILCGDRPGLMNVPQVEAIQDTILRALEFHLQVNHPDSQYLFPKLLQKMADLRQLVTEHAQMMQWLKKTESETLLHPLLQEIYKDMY

[10] = system: Mus musculus; assay: Hypolipidemic effect on diabetic KKAy mouse model assessed as reduction of plasma triglyceride level at 3 mg/kg, po QD for 4 days; assay type: functional; design: scale not given: the % may be the effect or the level left
[11] = system: Mus musculus; assay: Hypoglycemic effect on diabetic KKAy mouse model assessed as reduction of plasma glucose level at 3 mg/kg, po QD for 4 days; assay type: functional; design: scale not given: the % may be the effect or the level left
[12] = system: Mus musculus; assay: Hypolipidemic effect on diabetic KKAy mouse model assessed as reduction of VLDL cholesterol level at 3 mg/kg, po QD for 4 days; assay type: functional; design: scale not given: the % may be the effect or the level left
[13] = molecular target: T8, Peroxisome proliferator-activated receptor alpha (Homo sapiens) (UniProt Q07869); assay: Agonist activity at human PPARalpha expressed in monkey CV1 cells at 10 uM by transactivation assay; assay type: functional, cell-based; conditions: CV-1
T8 sequence (whole entry): T3 sequence (Q07869 whole entry)

[14] = molecular target: T9, Peroxisome proliferator-activated receptor gamma (Homo sapiens) (UniProt P37231); assay: Agonist activity at human PPARgamma expressed in monkey CV1 cells at 10 uM by transactivation assay; assay type: functional, cell-based; conditions: CV-1
T9 sequence (whole entry): T2 sequence (P37231 whole entry)

[15] = system: Mus musculus; assay: Hypolipidemic effect on diabetic KKAy mouse model assessed as reduction of VLDL cholesterol level at 300 mg/kg, po QD for 4 days; assay type: functional; design: scale not given: the % may be the effect or the level left
[16] = system: Mus musculus; assay: Hypolipidemic effect on diabetic KKAy mouse model assessed as increase in HDL cholesterol level at 300 mg/kg, po QD for 4 days; assay type: functional
[17] = system: Mus musculus; assay: Hypolipidemic effect on diabetic KKAy mouse model assessed as reduction of plasma triglyceride level at 300 mg/kg, po QD for 4 days; assay type: functional; design: scale not given: the % may be the effect or the level left
[18] = system: Mus musculus; assay: Hypoglycemic effect on diabetic KKAy mouse model assessed as reduction of plasma glucose level at 300 mg/kg, po QD for 4 days; assay type: functional; design: scale not given: the % may be the effect or the level left
[19] = system: Mus musculus; assay: as §1; assay type: functional; remark: listed apart in the source
[20] = molecular target: T10, Peroxisome proliferator-activated receptor gamma (Mus musculus) (UniProt P37238); assay: Agonist activity at mouse PPARgamma at 10 uM by transactivation assay; assay type: functional
T10 sequence (whole entry): T6 sequence (P37238 whole entry)

[21] = organism: Homo sapiens; assay: Selectivity of human PPARalpha over human PPARdelta
[22] = organism: Homo sapiens; assay: Selectivity of human PPARalpha over human PPARgamma
[23] = system: Mus musculus; assay: Hypoglycemic effect on diabetic KKAy mouse model assessed as reduction of plasma glucose level at 1 mg/kg, po QD for 4 days; assay type: functional; design: scale not given: the % may be the effect or the level left
[24] = system: Mus musculus; assay: Hypolipidemic effect on diabetic KKAy mouse model assessed as reduction of VLDL cholesterol level at 1 mg/kg, po QD for 4 days; assay type: functional; design: scale not given: the % may be the effect or the level left

Cc1oc(-c2ccccc2)nc1CCCCCCOC(C)(C)C(=O)O
EC50 [1]: 30 µM | Activity [2]: 32% | EC50 [3]: 0.3 µM

CC[C@]1(C(=O)O)OC[C@@H](CCCCc2nc(-c3ccccc3)oc2C)CO1
EC50 [4]: 0.03 µM | Activity [5]: 19% | Activity [6]: 5% | EC50 [7]: 0.1 µM | EC50 [8]: 10 µM | Activity [9]: 7% | Activity [10]: 52% | Activity [11]: 18% | Activity [12]: 26% | EC50 [3]: 10 µM

Cc1oc(-c2ccccc2)nc1CCC[C@H]1CO[C@@](C)(C(=O)O)OC1
Activity [13]: 8% | Activity [14]: 2% | Activity [5]: 12%

Cc1oc(-c2ccccc2)nc1Cc1ccc(C[C@H]2CO[C@@](C)(C(=O)O)OC2)cc1
EC50 [4]: 3 µM | Activity [5]: 38% | EC50 [3]: 3 µM

Cc1oc(-c2ccccc2)nc1CCCCC[C@H]1CO[C@@](C)(C(=O)O)OC1
EC50 [4]: 0.1 µM | Activity [5]: 34% | EC50 [3]: 0.3 µM

Cc1oc(-c2ccccc2)nc1Cc1ccc([C@H]2CO[C@@](C)(C(=O)O)OC2)cc1
Activity [13]: 5% | Activity [14]: 10% | Activity [5]: 0%

Cc1oc(-c2ccccc2)nc1Cc1cccc(C[C@H]2CO[C@@](C)(C(=O)O)OC2)c1
EC50 [4]: 3 µM | Activity [5]: 28% | EC50 [3]: 1 µM

CC(C)OC(=O)C(C)(C)Oc1ccc(C(=O)c2ccc(Cl)cc2)cc1 [FENOFIBRATE]
Activity [15]: 31% | Activity [16]: 17% | Activity [17]: 40% | Activity [18]: 25%

CC(C)(Oc1ccc(CCNC(=O)c2ccc(Cl)cc2)cc1)C(=O)O [BEZAFIBRATE]
EC50 [3]: 100 µM

Cc1oc(-c2ccccc2)nc1Cc1cccc([C@H]2CO[C@@](C)(C(=O)O)OC2)c1
EC50 [4]: 3 µM | Activity [14]: 12% | Activity [5]: 7%

Cc1oc(-c2ccccc2)nc1CCCC[C@H]1CO[C@@](CC(C)C)(C(=O)O)OC1
EC50 [4]: 0.03 µM | Activity [5]: 6% | EC50 [3]: 10 µM

Cc1oc(-c2ccccc2)nc1CCCC[C@H]1CO[C@@](C)(C(=O)O)OC1
Activity [5]: 0% | Activity [2]: 46% | Activity [19]: 36% | Activity [6]: 55% | Activity [20]: 21% | Activity [9]: 6% | Ratio EC50 [21]: > 300 | Ratio EC50 [22]: > 300 | Activity [10]: 56% | Activity [23]: 12% | Activity [11]: 13% | Activity [24]: 29% | Activity [12]: 49%

Cc1oc(-c2ccccc2)nc1CCCC[C@H]1CO[C@](C)(C(=O)O)OC1
EC50 [4]: 3 µM | Activity [5]: 10% | EC50 [3]: 30 µM

Cc1oc(-c2ccccc2)nc1CCCC[C@H]1CO[C@@H](C(=O)O)OC1
Activity [13]: 8% | Activity [14]: 0% | Activity [5]: 3%
